Where two headings read alike, the source gives them in different places.
How the values were obtained:
[1] = system: mouse ascitic leukemia p388; assay: Antitumor activity test (mouse ascitic leukemia p388 i.p. in BDF1-strain male mice); assay type: in vivo; settings: for Therapeutic index: Table 2, toxic dose/effective dose; for Prolongation of survival time, %: ip
Procedure: 10^6 Cells of mouse ascitic leukemia p388 were administered intraperitoneally into each member of the groups of 8 to 12 BDF1 -strain male mice, each 18 to 20 g in body weight. After 24 hr from the administration, a test compound was intraperitoneally administered to each member of the test group in a predetermined dose once a day for 4 consecutive days. Days elapsed until death of the test animal were counted for each mouse. To each member of the control group, a physiological saline solution was administered. The average survival period of the animal was represented by mean survival time. The prolongation of survival time, indicative of the effectiveness of a test compound, was calculated by the following equation. [formula] The therapeutic index was calculated by the following equation. [formula]

in vivo = settings: mouse, ip
Procedure: A test compound was dissolved in dimethyl sulfoxide and the solution was diluted to 50-fold with a physiological saline solution. This original solution was serially diluted at a common ratio of 1.15. Each resulting solution was administered intraperitoneally to groups of 10 to 15 dd-strain male mice, each 18 to 20 g in body weight. […] The LD50 was calculated from the number of dead mice of each group according to the Probit method.

[2] = already known; cited from earlier work
[3] = already known; cited from earlier work; remark: listed apart in the source
[4] = Table 2, i.p., dd-strain male mice, 3 weeks, read-out: LD50
[5] = Table 1, i.p., dd-strain male mice, 3 weeks, read-out: LD50

Structure (SMILES)	Therapeutic index [1]	LD50 at 504 h (in vivo) [mg/kg]	Prolongation of survival time, % ([1]; 30 mg/kg) [%]	LD50 at 504 h (in vivo; [5]) [mg/kg]	other results
COC1Nc2c(ccc(C)c2OCC(=O)O)C(=O)N2C=C(/C=C/C(N)=O)CC12 (stereo not drawn) [CH2 COONa, 5,10,11,11a-tetrahydro-9-carboxymethoxy-11-methoxy-8-methyl-5-oxo-1H-pyrrolo-[2,1-C][1,4]benzodiazepine-2-acrylamide]	88.5	102	–	–	–
Cc1ccc2c(c1O)NC(O)C1CC(/C=C/C(N)=O)=CN1C2=O (stereo not drawn) [PBA, 5,10,11,11a-tetrahydro-9,11-dihydroxy-8-methyl-5-oxo-1H-pyrrolo-[2,1-C][1,4]-benzodiazepine-2-acrylamide, reference compound]	36.5	0.73	–	–	antibacterial activity (in words) [2]: have an antibacterial activity; antitumor activity (in words) [3]: an antitumor activity
Cc1ccc2c(c1OCCCN)NC(O)C1CC(/C=C/C(N)=O)=CN1C2=O (stereo not drawn) [(CH2)3 NH2, 5,10,11,11a-tetrahydro-9-(3-aminopropoxy)-11-hydroxy-8-methyl-5-oxo-1H-pyrrolo[2,1-C][1,4]benzodiazepine-2-acrylamide]	93.5	103	–	–	–
COC1Nc2c(ccc(C)c2OCCc2ccc(C(=O)O)cc2)C(=O)N2C=C(/C=C/C(N)=O)CC12 (stereo not drawn) [5,10,11,11a-tetrahydro-9-[2-(4-carboxyphenyl)-ethoxy]-11-methoxy-8-methyl-5-oxo-1H-pyrrolo-[2,1-C][1,4]benzodiazepine-2-acrylamide]	82.3	–	–	–	Prolongation of survival time, % ([1]; 10 mg/kg): 165%; LD50 at 504 h (in vivo; [4]): 128 mg/kg
Cc1ccc2c(c1OC(=O)COCC(=O)O)NC(O)C1CC(/C=C/C(N)=O)=CN1C2=O (stereo not drawn) [COCH2OCH2COOK, 5,10,11,11a-tetrahydro-9-(4-carboxy-3-oxabutanoyloxy)-11-hydroxy-8-methyl-5-oxo-1H-pyrrolo-[2,1-C][1,4]-benzodiazepine-2-acrylamide]	–	–	181.2	160	–
Cc1ccc2c(c1O)N=CC1CC(/C=C/C(N)=O)=CN1C2=O (stereo not drawn) [P'B'A', 5,11,11a-trihydro-9-hydroxy-8-methyl-5-oxo-1H-pyrrolo[2,1-C][1,4]benzodiazepine-2-acylamide]	–	–	–	–	antibacterial activity (in words) [2]: have an antibacterial activity; antitumor activity (in words) [3]: an antitumor activity
Cc1ccc2c(c1OC(=O)CCC(=O)O)NC(O)C1CC(/C=C/C(N)=O)=CN1C2=O (stereo not drawn) [COCH2 CH2COOK, 5,10,11,11a-tetrahydro-9-(3-carboxypropanoyloxy)-11-hydroxy-8-methyl-5-oxo-1H-pyrrolo[2,1-C][1,4]-benzodiazepine-2-acrylamide]	–	120	160	–	–
Cc1ccc2c(c1OC(=O)CCCC(=O)O)NC(O)C1CC(/C=C/C(N)=O)=CN1C2=O (stereo not drawn) [COCH2 CH2 CH2COOK, 5,10,11,11a-tetrahydro-9-(4-carboxybutanoyloxy)-11-hydroxy-8-methyl-5-oxo-1H-pyrrolo-[2,1-C][1,4]-benzodiazepine-2-acrylamide]	–	–	185	151	–
COC1Nc2c(ccc(C)c2OCCC(=O)O)C(=O)N2C=C(/C=C/C(N)=O)CC12 (stereo not drawn) [CH2 CH2 COOK, 5,10,11,11a-tetrahydro-9-(2-carboxyethoxy)-11-methoxy-8-methyl-5-oxo-1H-pyrrolo-[2,1-C][1,4]benzodiazepine-2-acrylamide]	72.4	105	–	–	Prolongation of survival time, % ([1]; 10 mg/kg): 172%
Cc1ccc2c(c1OCCC#N)NC(O)C1CC(/C=C/C(N)=O)=CN1C2=O (stereo not drawn) [(CH2)2 CN, 5,10,11,11a-tetrahydro-9-(2-cyanoethoxy)-11-hydroxy-8-methyl-5-oxo-1H-pyrrolo-[2,1-C][1,4]benzodiazepine-2-acrylamide]	103.8	–	–	–	LD50 at 504 h (in vivo; [4]): 118 mg/kg
Cc1ccc2c(c1OC(=O)CCCCC(=O)O)NC(O)C1CC(/C=C/C(N)=O)=CN1C2=O (stereo not drawn) [COCH2 CH2 CH2 CH2COOK, 5,10,11,11a-tetrahydro-9-(5-carboxypentanoyloxy)-11-hydroxy-8-methyl-5-oxo-1H-pyrrolo-[2,1-C][1,4]-benzodiazepine-2-acrylamide]	–	–	172.5	157	–
Cc1ccc2c(c1OCCCC#N)NC(O)C1CC(/C=C/C(N)=O)=CN1C2=O (stereo not drawn) [(CH2)3 CN, 5,10,11,11a-Tetrahydro-9-(3-cyanopropoxy)-11-hydroxy-8-methyl-5-oxo-1H-pyrrolo-[2,1-C][1,4]benzodiazepine-2-acrylamide]	95.2	–	–	–	Prolongation of survival time, % ([1]; 10 mg/kg): 188%; LD50 at 504 h (in vivo; [4]): 110 mg/kg
Cc1ccc2c(c1OCc1ccccc1C#N)NC(O)C1CC(/C=C/C(N)=O)=CN1C2=O (stereo not drawn) [5,10,11,11a-tetrahydro-9-(2-cyanobenzyloxy)-11-hydroxy-8-methyl-5-oxo-1H-pyrrolo-[2,1-C][1,4]benzodiazepine-2-acrylamide]	73.3	120	–	–	–
COC1Nc2c(ccc(C)c2OC(=O)c2ccccc2C(=O)O)C(=O)N2C=C(C=CC(N)=O)CC12 (stereo not drawn) [5,10,11,11a-tetrahydro-9-(2-carboxyphenylcarbonyloxy)-11-methoxy-8-methyl-5-oxo-1H-pyrrolo-[2,1-C][1,4]-benzodiazepine-2-acrylamide]	–	–	130.2	86.9	–
CC(=O)SC(CC(=O)Oc1c(C)ccc2c1NC(O)C1CC(/C=C/C(N)=O)=CN1C2=O)C(=O)O (stereo not drawn) [5,10,11,11a-tetrahydro-9-(3-carboxy-3-S-acetylmercaptopropanoyloxy)-11-hydroxy-8-methyl-5-oxo-1H-pyrrolo-[2,1-C][1,4]-benzodiazepine-2-acrylamide]	–	–	–	138	–
CCC(CCCN)Oc1c(C)ccc2c1NC(OC)C1CC(/C=C/C(N)=O)=CN1C2=O (stereo not drawn) [5,10, 11, 11a-tetrahydro-9-(4-amino-1-ethylpropoxy)-11-methoxy-8-methyl-5-oxo-1H-pyrrolo-[2,1-C][1,4]benzodiazepine-2-acrylamide]	78.4	–	–	–	LD50 at 504 h (in vivo; [4]): 115 mg/kg
COC1Nc2c(ccc(C)c2OC(=O)c2cccc([N+](=O)[O-])c2C(=O)O)C(=O)N2C=C(C=CC(N)=O)CC12 (stereo not drawn) [5,10,11,11a-tetrahydro-9-(2-carboxy-3-nitrophenylcarbonyloxy)-11-methoxy-8-methyl-5-oxo-1H-pyrrolo-[2,1-C][1,4]-benzodiazepine-2-acrylamide]	–	–	152	95	–
CCCCCCCCCC(CC(=O)Oc1c(C)ccc2c1NC(O)C1CC(C=CC(N)=O)=CN1C2=O)C(=O)O (stereo not drawn) [Table 1 entry 4 (R^1 not printed), 5,10,11,11a-tetrahydro-9-(3-carboxydodecanoyloxy)-11-hydroxy-8-methyl-5-oxo-1H-pyrrolo-[2,1-C][1,4]-benzodiazepine-2-acrylamide]	–	–	–	122	–
